In the supplement of paper PMC11061612:

What was measured:
Gemcitabine = compound: Nc1ccn([C@@H]2O[C@H](CO)[C@@H](O)C2(F)F)c(=O)n1 [Gemcitabine]; conditions: max 0.3 µM
Method in brief: (§1)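 Following 24 hours at 37°C and 5% CO2, cancer cell lines in 1536-well plates with 7.5 μl DMEM/F12 or RPMI and 10% FBS were dosed for 72 hours, final DMSO typically being 0.2%. CellTiter-Glo 2.0 luminescence, scaled between blank-well and DMSO-well means, gave the viability readout. Dose responses were fitted to a two-parameter logistic curve with a non-linear mixed effects model, and the single-agent IC50 was derived from this fit.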

Paclitaxel = compound: CC(=O)O[C@H]1C(=O)[C@@]2(C)[C@H]([C@H](OC(=O)c3ccccc3)[C@]3(O)C[C@H](OC(=O)[C@H](O)[C@@H](NC(=O)c4ccccc4)c4ccccc4)C(C)=C1C3(C)C)[C@]1(OC(C)=O)CO[C@@H]1C[C@@H]2O [Paclitaxel]; conditions: max 3 µM
Method in brief: as §1

Taselisib = compound: Cc1nc(-c2cn3c(n2)-c2ccc(-c4cnn(C(C)(C)C(N)=O)c4)cc2OCC3)n(C(C)C)n1 [Taselisib]; conditions: max 10 µM
Method in brief: as §1

[1] = compound: O=C(Nc1ccc2[nH]nc(-c3ccncc3)c2c1)[C@@H]1CCN(CC(=O)N2CCN(c3ccc(-c4ncccn4)cc3)CC2)C1; conditions: max 5 µM
Method in brief: as §1

Etoposide = compound: COc1cc([C@@H]2c3cc4c(cc3[C@@H](O[C@@H]3O[C@@H]5CO[C@@H](C)O[C@H]5[C@H](O)[C@H]3O)[C@H]3COC(=O)[C@H]23)OCO4)cc(OC)c1O [Etoposide]; conditions: max 10 µM
Method in brief: as §1

AZD1775 = compound: C=CCn1c(=O)c2cnc(Nc3ccc(N4CCN(C)CC4)cc3)nc2n1-c1cccc(C(C)(C)O)n1 [AZD1775]; conditions: max 3 µM
Method in brief: as §1

AZD1390 = compound: CC(C)n1c(=O)n(C)c2cnc3cc(F)c(-c4ccc(OCCCN5CCCCC5)nc4)cc3c21 [AZD1390]; conditions: max 0.3 µM
Method in brief: as §1

Gefitinib = compound: COc1cc2ncnc(Nc3ccc(F)c(Cl)c3)c2cc1OCCCN1CCOCC1 [Gefitinib]; conditions: max 10 µM
Method in brief: as §1

5-Fluorouracil = compound: O=c1[nH]cc(F)c(=O)[nH]1 [5-Fluorouracil]; conditions: max 20 µM
Method in brief: as §1

SRA737 = compound: N#Cc1cnc(Nc2cc(NC[C@H]3CNCCO3)c(C(F)(F)F)cn2)cn1 [SRA737]; conditions: max 10 µM
Method in brief: as §1

Trametinib = compound: CC(=O)Nc1cccc(-n2c(=O)n(C3CC3)c(=O)c3c(Nc4ccc(I)cc4F)n(C)c(=O)c(C)c32)c1 [Trametinib]; conditions: max 1 µM
Method in brief: as §1

SN-38 = compound: CCc1c2c(nc3ccc(O)cc13)-c1cc3c(c(=O)n1C2)COC(=O)[C@]3(O)CC [SN-38]; conditions: max 0.3 µM
Method in brief: as §1

AZD5363 = compound: C1CN(CCC1(C(=O)N[C@@H](CCO)C2=CC=C(C=C2)Cl)N)C3=NC=NC4=C3C=CN4 [AZD5363]; conditions: max 10 µM
Method in brief: as §1

Carboplatin = compound: C1CC(C1)(C(=O)[O-])C(=O)[O-].N.N.[Pt+2] [Carboplatin]; conditions: max 10 µM
Method in brief: as §1

Alisertib = compound: COc1cc(Nc2ncc3c(n2)-c2ccc(Cl)cc2C(c2c(F)cccc2OC)=NC3)ccc1C(=O)O [Alisertib]; conditions: max 10 µM
Method in brief: as §1

Savolitinib = compound: C[C@@H](c1ccc2nccn2c1)n1nnc2ncc(-c3cnn(C)c3)nc21 [Savolitinib]; conditions: max 1 µM
Method in brief: as §1

Palbociclib = compound: CC(=O)c1c(C)c2cnc(Nc3ccc(N4CCNCC4)cn3)nc2n(C2CCCC2)c1=O [Palbociclib]; conditions: max 10 µM
Method in brief: as §1

MK-2206 = compound: NC1(c2ccc(-c3nc4ccn5c(=O)[nH]nc5c4cc3-c3ccccc3)cc2)CCC1 [MK-2206]; conditions: max 10 µM
Method in brief: as §1

Olaparib = compound: O=C(c1cc(Cc2n[nH]c(=O)c3ccccc23)ccc1F)N1CCN(C(=O)C2CC2)CC1 [Olaparib]; conditions: max 10 µM
Method in brief: as §1

Crizotinib = compound: C[C@@H](Oc1cc(-c2cnn(C3CCNCC3)c2)cnc1N)c1c(Cl)ccc(F)c1Cl [Crizotinib]; conditions: max 10 µM
Method in brief: as §1

Lapatinib = compound: CS(=O)(=O)CCNCc1ccc(-c2ccc3ncnc(Nc4ccc(OCc5cccc(F)c5)c(Cl)c4)c3c2)o1 [Lapatinib]; conditions: max 10 µM
Method in brief: as §1

AZD7648 = compound: Cc1cc2ncnn2cc1Nc1ncc2c(n1)n(C1CCOCC1)c(=O)n2C [AZD7648]; conditions: max 10 µM
Method in brief: as §1

AZD8186 = compound: C[C@@H](Nc1cc(F)cc(F)c1)c1cc(C(=O)N(C)C)cc2c(=O)cc(N3CCOCC3)oc12 [AZD8186]; conditions: max 10 µM
Method in brief: as §1

AZD2811 = compound: CCN(CCO)CCCOc1ccc2c(Nc3cc(CC(=O)Nc4cccc(F)c4)[nH]n3)ncnc2c1 [AZD2811]; conditions: max 1 µM
Method in brief: as §1

Venetoclax = compound: CC1(C)CCC(CN2CCN(c3ccc(C(=O)NS(=O)(=O)c4ccc(NCC5CCOCC5)c([N+](=O)[O-])c4)c(Oc4cnc5[nH]ccc5c4)c3)CC2)=C(c2ccc(Cl)cc2)C1 [Venetoclax]; conditions: max 1 µM
Method in brief: as §1

AZD0156 = compound: CN(C)CCCOc1ccc(-c2ccc3ncc4c(c3c2)n(C2CCOCC2)c(=O)n4C)cn1 [AZD0156]; conditions: max 3 µM
Method in brief: as §1

AZD6738 = compound: C[C@@H]1COCCN1C2=NC(=NC(=C2)C3(CC3)[S@](=N)(=O)C)C4=C5C=CNC5=NC=C4 [AZD6738]; conditions: max 10 µM
Method in brief: as §1

AZD5153 = compound: COc1nnc2ccc(N3CCC(c4ccc(OCCN5CCN(C)C(=O)[C@H]5C)cc4)CC3)nn12 [AZD5153]; conditions: max 1 µM
Method in brief: as §1

Prexasertib = compound: COc1cccc(OCCCN)c1-c1cc(Nc2cnc(C#N)cn2)n[nH]1 [Prexasertib]; conditions: max 1 µM
Method in brief: as §1

Selumetinib = compound: Cn1cnc2c(F)c(Nc3ccc(Br)cc3Cl)c(C(=O)NOCCO)cc21 [Selumetinib]; conditions: max 10 µM
Method in brief: as §1

AZD5991 = compound: Cc1c2c(nn1C)CSCc1cc(n(C)n1)CSc1cc(c3ccccc3c1)OCCCc1c(C(=O)O)n(C)c3c-2c(Cl)ccc13 [AZD5991]; conditions: max 1 µM
Method in brief: as §1

Dasatinib = compound: CC1=C(C(=CC=C1)Cl)NC(=O)C2=CN=C(S2)NC3=CC(=NC(=N3)C)N4CCN(CC4)CCO [Dasatinib]; conditions: max 2 µM
Method in brief: as §1

SG3199 = compound: CC1=CN2[C@@H](C1)C=NC3=CC(=C(C=C3C2=O)OC)OCCCCCOC4=C(C=C5C(=C4)N=C[C@@H]6CC(=CN6C5=O)C)OC [SG3199]; conditions: max 0.001 µM
Method in brief: as §1

Doxorubicin = compound: COc1cccc2c1C(=O)c1c(O)c3c(c(O)c1C2=O)C[C@@](O)(C(=O)CO)C[C@@H]3O[C@H]1C[C@H](N)[C@H](O)[C@H](C)O1 [Doxorubicin]; conditions: max 1 µM
Method in brief: as §1

AZD4320 = compound: CN(CC[C@H](CSC1=CC=CC=C1)NC2=C(C=C(C=C2)S(=O)(=O)NC(=O)C3=CC=C(C=C3)N4CCC(CC4)[C@H](C5=CC=CC=C5C6=CC=C(C=C6)Cl)O)S(=O)(=O)C(F)(F)F)CCO [AZD4320]; conditions: max 1 µM
Method in brief: as §1

| Cell Line | IC50, cell viability 72 h (Gemcitabine) [µM] | IC50, cell viability 72 h (Paclitaxel) [µM] | IC50, cell viability 72 h (Taselisib) [µM] | IC50, cell viability 72 h [1] [µM] | IC50, cell viability 72 h (Etoposide) [µM] | IC50, cell viability 72 h (AZD1775) [µM] | IC50, cell viability 72 h (AZD1390) [µM] | IC50, cell viability 72 h (Gefitinib) [µM] | IC50, cell viability 72 h (5-Fluorouracil) [µM] | IC50, cell viability 72 h (SRA737) [µM] | IC50, cell viability 72 h (Trametinib) [µM] | IC50, cell viability 72 h (SN-38) [µM] | IC50, cell viability 72 h (AZD5363) [µM] | IC50, cell viability 72 h (Carboplatin) [µM] | IC50, cell viability 72 h (Alisertib) [µM] | IC50, cell viability 72 h (Savolitinib) [µM] | IC50, cell viability 72 h (Palbociclib) [µM] | IC50, cell viability 72 h (MK-2206) [µM] | IC50, cell viability 72 h (Olaparib) [µM] | IC50, cell viability 72 h (Crizotinib) [µM] | IC50, cell viability 72 h (Lapatinib) [µM] | IC50, cell viability 72 h (AZD7648) [µM] | IC50, cell viability 72 h (AZD8186) [µM] | IC50, cell viability 72 h (AZD2811) [µM] | IC50, cell viability 72 h (Venetoclax) [µM] | IC50, cell viability 72 h (AZD0156) [µM] | IC50, cell viability 72 h (AZD6738) [µM] | IC50, cell viability 72 h (AZD5153) [µM] | IC50, cell viability 72 h (Prexasertib) [µM] | IC50, cell viability 72 h (Selumetinib) [µM] | IC50, cell viability 72 h (AZD5991) [µM] | IC50, cell viability 72 h (Dasatinib) [µM] | IC50, cell viability 72 h (SG3199) [µM] | IC50, cell viability 72 h (Doxorubicin) [µM] | IC50, cell viability 72 h (AZD4320) [µM] |
| --- | --- | --- | --- | --- | --- | --- | --- | --- | --- | --- | --- | --- | --- | --- | --- | --- | --- | --- | --- | --- | --- | --- | --- | --- | --- | --- | --- | --- | --- | --- | --- | --- | --- | --- | --- |
| EB-3 (Burkitt's Lymphoma) | > 0.3 | 0.0887 | > 10 | > 5 | 1.02 | 0.555 | > 0.3 | > 10 | > 20 | > 10 | > 1 | 0.0529 | > 10 | > 10 | > 10 | > 1 | > 10 | > 10 | > 10 | 7.29 | > 10 | > 10 | > 10 | > 1 | > 1 | > 3 | 7.04 | 0.128 | 0.0864 | > 10 | > 1 | > 2 | > 0.001 | 0.194 | > 1 |
| FLO-1 (Esophageal Adenocarcinoma) | 0.0938 | 0.00542 | 8.83 | > 5 | 2.55 | 0.266 | > 0.3 | > 10 | 7.08 | > 10 | > 1 | 0.201 | > 10 | > 10 | 7.3 | > 1 | > 10 | > 10 | > 10 | 9.36 | > 10 | > 10 | > 10 | > 1 | > 1 | > 3 | > 10 | 0.793 | 0.0993 | > 10 | > 1 | 0.0648 | > 0.001 | 0.225 | > 1 |
| KYM-1 (Rhabdomyosarcoma) | 0.00574 | 0.00557 | > 10 | > 5 | 0.668 | 0.926 | > 0.3 | > 10 | 8.56 | 0.846 | > 1 | 0.0235 | 7.86 | > 10 | > 10 | > 1 | 0.522 | > 10 | > 10 | 2.94 | > 10 | > 10 | > 10 | > 1 | > 1 | > 3 | 2.64 | 0.0548 | 0.0338 | > 10 | > 1 | > 2 | > 0.001 | 0.485 | > 1 |
| KYSE-70 (Esophageal Squamous Cell Carcinoma) | > 0.3 | > 3 | 4.07 | > 5 | > 10 | > 3 | > 0.3 | > 10 | > 20 | > 10 | > 1 | > 0.3 | > 10 | > 10 | > 10 | > 1 | > 10 | > 10 | > 10 | > 10 | > 10 | > 10 | > 10 | > 1 | > 1 | > 3 | > 10 | > 1 | 0.241 | > 10 | > 1 | > 2 | > 0.001 | > 1 | > 1 |
| LAMA-84 (Chronic Myelogenous Leukemia) | 0.0246 | 0.037 | > 10 | 0.915 | 8.28 | 0.351 | > 0.3 | > 10 | > 20 | 2.11 | 0.0163 | 0.0246 | > 10 | > 10 | 0.305 | > 1 | 3.09 | 5.12 | > 10 | 0.527 | > 10 | > 10 | > 10 | > 1 | > 1 | > 3 | 2.02 | 0.146 | 0.0173 | 1.57 | > 1 | < 0.002 | > 0.001 | > 1 | 0.486 |
